Measurements: patent US20260200892A1, “CANNABINOID RECEPTOR 2 MODULATORS” (Hoffmann-La Roche Inc., priority 2023, published 2026)

Columns and labels:
[1] = biological target: T1, human CB2 receptor (hCB2R) (Homo sapiens, UniProt P34972); experiment: TR-FRET hCB2R binding assay; settings: TR-FRET, membranes of SNAP-tagged human CB2R HEK293-TR cells, 100 μM GppNHp, nonspecific binding with SR144528; read-out: Kd hCB2R
T1 construct: expressed in transfected cells; membranes

[2] = biological target: hCB1R (Homo sapiens, UniProt P21554); experiment: hCB1R binding (Kd hCB1R, Table 1)
hCB1R, sequence (P21554 whole entry): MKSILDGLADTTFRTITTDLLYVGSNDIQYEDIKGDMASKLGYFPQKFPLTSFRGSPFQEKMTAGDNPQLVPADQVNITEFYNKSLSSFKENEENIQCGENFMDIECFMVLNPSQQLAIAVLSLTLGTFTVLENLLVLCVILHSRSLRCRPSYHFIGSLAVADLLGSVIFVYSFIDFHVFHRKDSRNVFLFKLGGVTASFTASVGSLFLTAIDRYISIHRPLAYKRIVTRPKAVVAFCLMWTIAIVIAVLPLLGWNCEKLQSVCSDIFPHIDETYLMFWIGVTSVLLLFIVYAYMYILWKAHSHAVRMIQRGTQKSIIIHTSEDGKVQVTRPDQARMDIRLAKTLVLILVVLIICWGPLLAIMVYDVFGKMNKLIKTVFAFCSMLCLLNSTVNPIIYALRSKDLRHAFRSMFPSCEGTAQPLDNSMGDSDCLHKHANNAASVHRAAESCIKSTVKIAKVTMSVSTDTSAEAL

[3] = biological target: T2, CB2 receptor (hCB2R), CHO cell line stably overexpressing CB2 receptor (Homo sapiens, UniProt P34972); experiment: cAMP hCB2R functional assay (HTRF); assay type: cell-based; settings: CHO cells overexpressing CB2 receptor, forskolin; for EC50: means ± SEM of 2-3 independent experiments; for Functionality: normalized to Emax of CP55940 (100%)
T2 construct: expressed in transfected cells; host or cells: CHO cell line stably overexpressing CB2 receptor (G418 selection)
T2 sequence (P34972 whole entry): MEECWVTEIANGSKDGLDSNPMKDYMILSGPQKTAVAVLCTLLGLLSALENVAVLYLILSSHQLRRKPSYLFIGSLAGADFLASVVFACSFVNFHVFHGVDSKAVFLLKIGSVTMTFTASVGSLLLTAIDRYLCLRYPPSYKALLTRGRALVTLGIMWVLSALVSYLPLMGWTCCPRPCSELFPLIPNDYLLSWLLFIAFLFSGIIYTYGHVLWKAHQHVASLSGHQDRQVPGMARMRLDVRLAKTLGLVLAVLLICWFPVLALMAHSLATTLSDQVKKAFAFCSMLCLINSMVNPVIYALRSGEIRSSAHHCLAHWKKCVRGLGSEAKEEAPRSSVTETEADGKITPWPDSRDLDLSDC
Experimental: cAMP hCB2R Functional Assay
The Homogeneous Time Resolved Fluorescence (HTRF) Assays
The homogeneous time-resolved fluorescence (HTRF) cAMP assay was conducted according to the manufacturer's protocol for the cAMP-Gs Dynamic kit (Cisbio). Briefly, the CHO cell line stably overexpressing CB2 receptor were maintained in Ham's F12 supplemented with 10% FBS, 100 U/ml penicillin and 100 μg/ml streptomycin (Gibco-ThermoFisher) and 400 μg/ml G418 (ThermoFisher). For CB2 compounds test, harvest the cells with Cell Dissociation Buffer and re-suspend the cells in F-12 K at 0.4*10^6 cells/mL, and dispense cells into 384-well low volume plates at 2000 cells/5 μL per well. The cells were stimulated with compounds diluted in Stimulation Buffer (2.5 μL/well) for 15 min at room temperature. And then followed by the addition of 2.5 μL 25 μM forsklin. After 15 mins incubation, reactions were stopped by 5 μL/well cAMP-d2 conjugate working solution followed by 5 μL/well of anti-cAMP cryptate working solution. After incubation for 1 h at room temperature, the plates were read in a PerkinElmer Envision reader for time-resolved fluorescence resonance energy transfer detection at 620 nm and 665 nm.
Quantification and Statistical Analysis
All HTRF ratio data sets of test compounds were normalized to the Emax of CP55940 (100%) and obtained the means±standard error of the mean (SEM) of 2-3 independent experiments performed in technical replicates.

T1 sequence (P34972 whole entry): as above

With CCCCC[C@@H](c1cccc(F)c1)C(C)(C)c1cc(OC)c([C@H]2C=C(CO)[C@H]3C[C@@H]2C3(C)C)c(OC)c1 [Example 12, ((1S,4S,5S)-4-(4-((S)-3-(3-fluorophenyl)-2-methyloctan-2-yl)-2,6-dimethoxyphenyl)-6,6-dimethylbicyclo[3.1.1]hept-2-en-2-yl)methanol] the Kd [1] was 0.03 µM, the Kd [2] was 1.95 µM and the EC50 [3] was 0.209 µM. For the same compound, the Functionality [3] was “inverse agonist”.
CCCCC[C@H](c1ccccc1)C(C)(C)c1cc(OC)c([C@H]2C=C(CO)[C@H]3C[C@@H]2C3(C)C)c(OC)c1 [Example 7, ((1S,4S,5S)-4-(2,6-dimethoxy-4-((R)-2-methyl-3-phenyloctan-2-yl)phenyl)-6,6-dimethylbicyclo[3.1.1]hept-2-en-2-yl)methanol] showed a Kd [1] of 0.197 µM, a Kd [2] of 1.04 µM and an EC50 [3] of 0.417 µM. The Functionality [3] was “inverse agonist”.
In the case of CCCCC[C@@H](c1ccccc1)C(C)(C)c1cc(OC)c([C@H]2C=C(CO)[C@H]3C[C@@H]2C3(C)C)c(OC)c1 [Example 8, ((1S,4S,5S)-4-(2,6-dimethoxy-4-((S)-2-methyl-3-phenyloctan-2-yl)phenyl)-6,6-dimethylbicyclo[3.1.1]hept-2-en-2-yl)methanol], the Kd [1] is reported as 0.0045 µM, the Kd [2] is reported as 0.716 µM and the EC50 [3] is reported as 0.302 µM. For the same compound, the Functionality [3] was “inverse agonist”.
CCCCC[C@H](C(F)(F)F)C(C)(C)c1cc(OC)c([C@H]2C=C(CO)[C@H]3C[C@@H]2C3(C)C)c(OC)c1 [Example 2, ((1S,4S,5S)-4-(2,6-dimethoxy-4-((S)-2-methyl-3-(trifluoromethyl)octan-2-yl)phenyl)-6,6-dimethylbicyclo[3.1.1]hept-2-en-2-yl)methanol] showed a Kd [1] of 0.0099 µM, a Kd [2] of 6.53 µM and an EC50 [3] of 0.0117 µM. The Functionality [3] was “agonist”.
In the case of CCCCCC(CC)C(C)(C)c1cc(OC)c([C@H]2C=C(CO)[C@H]3C[C@@H]2C3(C)C)c(OC)c1 (stereo partly drawn) [Example 3, ((1S,4S,5S)-4-(4-(3-ethyl-2-methyloctan-2-yl)-2,6-dimethoxyphenyl)-6,6-dimethylbicyclo[3.1.1]hept-2-en-2-yl)methanol], the Kd [1] is reported as 0.00056 µM, the Kd [2] is reported as 13 µM and the EC50 [3] is reported as 0.1 µM. The Functionality [3] was “partial agonist”.
In the case of CCCCC[C@@H](CC)C(C)(C)c1cc(OC)c([C@H]2C=C(CO)[C@H]3C[C@@H]2C3(C)C)c(OC)c1 (single isomer, unassigned) [Example 4], the Kd [1] is reported as 0.00097 µM, the Kd [2] is reported as 2.19 µM and the Functionality [3] is reported as “antagonist”.
With CCN(CC)c1ccc2cc(/C=C/c3ccc(S(=O)(=O)[O-])c[n+]3CCCCCC(=O)NCC3=C[C@H](c4c(OC)cc(C(C)(C)[C@H](CCCCCN=[N+]=[N-])c5ccccc5)cc4OC)[C@@H]4C[C@H]3C4(C)C)c(=O)oc2c1 [Example 22, 1-(6-((((1S,4S,5S)-4-(4-((R)-8-azido-2-methyl-3-phenyloctan-2-yl)-2,6-dimethoxyphenyl)-6,6-dimethylbicyclo[3.1.1]hept-2-en-2-yl)methyl)amino)-6-oxohexyl)-6-((E)-2-(7-(diethylamino)-2-oxo-2H-chromen-3-yl)vinyl)pyridin-1-ium-3-sulfonate] the Kd [1] was 0.0102 µM, the Kd [2] was 1.74 µM and the EC50 [3] was 0.0708 µM. The Functionality [3] was “inverse agonist”.
With COc1cc(C(C)(C)[C@H](CCCCCN=[N+]=[N-])c2ccccc2)cc(OC)c1[C@H]1C=C(CNC(=O)CCCCCNC(=O)c2ccc3c(c2)C(=O)OC32c3ccc(N)c(S(=O)(=O)O)c3Oc3c2ccc(N)c3S(=O)(=O)O)[C@H]2C[C@@H]1C2(C)C [Example 29, 3′,6′-diamino-5-((6-((((1S,4S,5S)-4-(4-((R)-8-azido-2-methyl-3-phenyloctan-2-yl)-2,6-dimethoxyphenyl)-6,6-dimethylbicyclo[3.1.1]hept-2-en-2-yl)methyl)amino)-6-oxohexyl)carbamoyl)-3-oxo-3H-spiro[isobenzofuran-1,9′-xanthene]-4′,5′-disulfonic acid] the Kd [1] was 0.0249 µM and the Kd [2] was 3.3 µM.
